The source made the active and inactive calls.
How the values were obtained:
[1] = tested on: HEK293; assay: inhibition of NOD1-driven NF-kB reporter – cell-based, luminescence, uHTS, primary screen (AID 1578); format: functional; conditions: Homo sapiens
[2] = tested on: BJ; assay: BJ-TERT fibroblast viability loss – cell-based, RAS-independent, luminescence, dose response (AID 1933); format: functional; conditions: Homo sapiens
[3] = tested on: HEK293; assay: cells; format: functional, cell-based; conditions: Homo sapiens
[4] = cells; format: functional, cell-based
[5] = tested on: BJ; assay: cells; format: functional, cell-based; conditions: Homo sapiens
[6] = tested on: HEK293; assay: cells; format: functional, cell-based; conditions: Homo sapiens; remark: listed apart in the source
[7] = biological target: Nucleotide-binding oligomerization domain-containing protein 2 (Homo sapiens, UniProt Q9HC29); assay: inhibition of NOD2-driven NF-kB reporter – cell-based, luminescence, uHTS, HEK293 (AID 1566); format: functional
[8] = tested on: HEK293; assay: NOD2 signaling inhibitors in MDP-stimulated cells, cell-based, uHTS, luminescence (AID 2001); format: functional; conditions: Homo sapiens
[9] = tested on: HEK293; assay: cells; format: functional, cell-based; conditions: Homo sapiens; remark: listed apart in the source
[10] = Luminescence-based dose response cell-based high throughput screening assay for cytotoxic compounds using the IEC-6 intestinal epithelial cell line. [Related pubchem assays: 1858 (Summary AID.), 1825 (Counterscreen.), 1907 (Confirmation screen.)]; format: functional
[11] = cells; format: functional, cell-based; remark: listed apart in the source
[12] = tested on: BJ; assay: BJ-TERT-LT-ST fibroblast viability loss – cell-based, RAS-independent, luminescence, dose response (AID 1935); format: functional; conditions: Homo sapiens;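 further: BJ fibroblasts immortalized with TERT plus LT and ST oncogenes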
[13] = DRD fibroblast viability loss – cell-based, non-viral oncogenic, luminescence, dose response (AID 1934); format: functional; conditions: Homo sapiens
[14] = biological target: Nonstructural protein 1 (Influenza A virus, UniProt Q194T2); format: functional, Influenza A virus (A/California/07/2009(H1N1))
[15] = tested on: HEK293; assay: EBV LMP1 TES2 canonical NF-kB signalling blockers – cell-based, HEK293, luciferase, cherry-pick, dose response (AID 588343); format: functional; conditions: Homo sapiens
[16] = tested on: INS1; assay: INS-1E survival protection against cytokine death – cell-based, luminescence, retest, dose response (AID 449756); format: functional; conditions: Rattus norvegicus;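 further: cell death triggered by IL-1 beta plus TNF-alpha plus IFN-gamma mixture; protective hits raise ATP signal compared with cytokine alone wells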
[17] = reduction of Shn3 3'UTR-driven luciferase in osteoblasts – cell-based, Clone20 osteoblasts, firefly luciferase, cherry-picked, dose response (AID 624132); format: functional;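 further: firefly luciferase luminescence from reporter carrying the Shn3 3'UTR in osteoblasts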
[18] = loss of viability in HepG2 cells – cell-based, CellTiter-Glo, cherry-picked, cytotoxicity control for Shn3 inhibitor project, dose response (AID 624134); format: functional
[19] = non-specific 3'UTR reporter inhibition in Clone20-Shn3RL – cell-based, Renilla luciferase, cherry-picked, counter-screen for Shn3 inhibitor project, dose response (AID 624133); format: functional
[20] = biological target: Cytochrome P450 2C19 (Homo sapiens, UniProt P33261); assay: qHTS Assay for Inhibitors and Substrates of Cytochrome P450 2C19. [Related pubchem assays: 410 ]; format: ADME; conditions: read-out: Potency
[21] = biological target: Cytochrome P450 2C9 (Homo sapiens, UniProt P11712); conditions: Potency
[22] = biological target: Voltage-gated inwardly rectifying potassium channel KCNH2 (Homo sapiens, UniProt Q12809); assay: concentration-dependent hERG rescue from blockers – cell-based, thallium flux, dose response (AID 2121); format: ADME
[23] = biological target: Aspartyl aminopeptidase (Plasmodium falciparum 3D7, UniProt Q8I2J3); assay: Counterscreen for inhibitors of M1 and M17 aminopeptidases: QFRET-based biochemical high throughput dose response assay for inhibitors of the Plasmodium falciparum M18 Aspartyl Aminopeptidase (PFM18AAP). [Related PubChem assays: 1619 (Screening assay (M17LAP inhibitors).), 1445 (Screening assay (M1AAP inhibitors).)]
[24] = biological target: T1, Aminopeptidase N (Plasmodium falciparum FcB1/Columbia, UniProt O96935); assay: malaria alanyl aminopeptidase activity blockers – biochemical, fluorogenic H-Leu-NHMec substrate, 1536-well (AID 1445); set-up: species or system Plasmodium falciparum 3D7, 3D7
T1 sequence (O96935 whole entry): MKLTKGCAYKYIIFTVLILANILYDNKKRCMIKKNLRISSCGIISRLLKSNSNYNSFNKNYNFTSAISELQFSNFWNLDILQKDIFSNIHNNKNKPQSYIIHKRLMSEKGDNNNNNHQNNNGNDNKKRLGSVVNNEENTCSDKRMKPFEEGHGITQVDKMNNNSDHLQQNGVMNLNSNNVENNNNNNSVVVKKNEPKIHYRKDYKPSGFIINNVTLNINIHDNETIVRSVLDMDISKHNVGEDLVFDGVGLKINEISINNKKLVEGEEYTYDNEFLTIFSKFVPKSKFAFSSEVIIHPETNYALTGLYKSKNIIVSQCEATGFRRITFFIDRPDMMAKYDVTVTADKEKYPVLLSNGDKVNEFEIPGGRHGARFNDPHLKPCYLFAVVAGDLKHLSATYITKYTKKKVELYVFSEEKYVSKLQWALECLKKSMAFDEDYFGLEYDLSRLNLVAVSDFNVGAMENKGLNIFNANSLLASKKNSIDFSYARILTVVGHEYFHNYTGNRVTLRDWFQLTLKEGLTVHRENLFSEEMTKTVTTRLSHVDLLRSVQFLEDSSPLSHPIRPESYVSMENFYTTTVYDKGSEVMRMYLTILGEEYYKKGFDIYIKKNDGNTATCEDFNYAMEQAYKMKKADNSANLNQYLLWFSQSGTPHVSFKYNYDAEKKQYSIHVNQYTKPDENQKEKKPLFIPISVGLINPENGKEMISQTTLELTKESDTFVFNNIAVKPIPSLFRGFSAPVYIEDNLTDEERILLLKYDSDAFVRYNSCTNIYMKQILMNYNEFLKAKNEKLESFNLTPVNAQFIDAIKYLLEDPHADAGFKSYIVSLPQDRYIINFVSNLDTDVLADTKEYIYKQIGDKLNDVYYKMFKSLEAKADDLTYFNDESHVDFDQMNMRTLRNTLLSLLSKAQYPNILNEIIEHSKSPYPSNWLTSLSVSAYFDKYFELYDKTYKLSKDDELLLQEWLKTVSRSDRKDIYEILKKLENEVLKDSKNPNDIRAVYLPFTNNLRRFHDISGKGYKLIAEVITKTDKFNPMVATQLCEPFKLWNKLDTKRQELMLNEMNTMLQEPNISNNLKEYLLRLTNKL

[25] = biological target: Procathepsin L (Homo sapiens, UniProt P07711); assay: CTSL1 protease inhibition – biochemical, QFRET, 1536-well, counter-screen for M1/M17 aminopeptidase inhibitor project, dose response (AID 2214)
[26] = Luminescence Cell-Based Dose Response to Identify Activators of 5'UTR Stem-Loop Driven Prion Protein mRNA Translation in H4-C Neuroglioblastoma Cells. [Related pubchem assays: 1829 (Project Summary), 1814 (Primary HTS)]; format: functional
[27] = Luminescence Cell-Based Dose Confirmation HTS to Identify Activators of 5'UTR Stem-Loop Driven Alpha-Synuclein mRNA Translation in H4 Neuroglioblastoma Cells. [Related pubchem assays: 1829 (Project Summary), 1814 (Primary HTS)]; format: functional
[28] = tested on: H4; assay: Luminescence Cell-Based Dose Response HTS to Identify Activators of 5'UTR Stem-Loop Driven Prion Protein mRNA Translation in H4 Neuroglioblastoma Cells. [Related pubchem assays: 1829 (Project Summary), 1814 (Primary HTS)]; format: functional; conditions: Homo sapiens
[29] = Luminescence Cell-Based Dose Response to Identify Activators of Luciferase Translation or Activity in H4-C Neuroglioblastoma Cells. [Related pubchem assays: 1829 (Project Summary), 1814 (Primary HTS)]; format: functional
[30] = Luminescence Cell-Based Dose Confirmation to Identify Activators of 5'UTR Stem-Loop Driven Alpha-Synuclein mRNA Translation in H4 Neuroglioblastoma Cells. [Related pubchem assays: 1829 (Project Summary), 1814 (Primary HTS)]; format: functional

Chain of Cytochrome P450 2C19 (P33261 whole entry): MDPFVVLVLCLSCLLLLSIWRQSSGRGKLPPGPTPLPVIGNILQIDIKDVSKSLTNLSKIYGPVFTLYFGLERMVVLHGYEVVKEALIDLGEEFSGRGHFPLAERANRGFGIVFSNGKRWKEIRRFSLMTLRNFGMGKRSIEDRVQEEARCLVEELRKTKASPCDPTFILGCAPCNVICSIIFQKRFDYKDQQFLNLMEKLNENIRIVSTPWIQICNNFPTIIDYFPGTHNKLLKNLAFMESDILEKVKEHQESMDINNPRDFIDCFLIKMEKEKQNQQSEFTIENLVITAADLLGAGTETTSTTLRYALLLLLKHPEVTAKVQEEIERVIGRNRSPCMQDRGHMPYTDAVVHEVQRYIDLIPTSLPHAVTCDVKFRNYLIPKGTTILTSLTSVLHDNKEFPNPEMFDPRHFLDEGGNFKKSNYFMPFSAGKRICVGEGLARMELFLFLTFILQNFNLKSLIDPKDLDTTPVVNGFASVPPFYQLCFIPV
Chain of Procathepsin L (P07711 whole entry): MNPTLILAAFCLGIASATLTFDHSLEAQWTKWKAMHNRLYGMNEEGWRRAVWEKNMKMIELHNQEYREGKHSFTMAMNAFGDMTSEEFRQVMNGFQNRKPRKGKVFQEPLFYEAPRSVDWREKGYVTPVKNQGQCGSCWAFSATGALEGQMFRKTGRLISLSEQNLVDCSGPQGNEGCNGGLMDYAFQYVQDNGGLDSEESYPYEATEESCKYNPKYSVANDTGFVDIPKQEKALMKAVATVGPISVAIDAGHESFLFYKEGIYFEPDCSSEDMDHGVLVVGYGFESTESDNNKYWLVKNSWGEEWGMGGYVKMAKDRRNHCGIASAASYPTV
Chain of Cytochrome P450 2C9 (P11712 whole entry): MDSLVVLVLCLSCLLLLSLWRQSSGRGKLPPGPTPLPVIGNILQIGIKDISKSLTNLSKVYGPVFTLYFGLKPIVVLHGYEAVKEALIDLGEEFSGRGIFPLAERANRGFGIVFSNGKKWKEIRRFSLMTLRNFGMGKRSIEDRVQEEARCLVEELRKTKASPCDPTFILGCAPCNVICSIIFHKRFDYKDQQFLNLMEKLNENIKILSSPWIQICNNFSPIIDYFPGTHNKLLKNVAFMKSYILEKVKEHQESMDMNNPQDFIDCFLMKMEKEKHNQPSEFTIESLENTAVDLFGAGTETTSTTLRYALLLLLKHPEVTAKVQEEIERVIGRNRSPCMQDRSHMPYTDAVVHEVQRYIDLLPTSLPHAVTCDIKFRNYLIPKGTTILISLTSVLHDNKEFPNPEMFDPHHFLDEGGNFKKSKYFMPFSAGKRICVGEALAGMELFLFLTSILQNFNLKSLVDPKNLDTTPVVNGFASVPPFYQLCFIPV
Chain of Aspartyl aminopeptidase (Q8I2J3 whole entry): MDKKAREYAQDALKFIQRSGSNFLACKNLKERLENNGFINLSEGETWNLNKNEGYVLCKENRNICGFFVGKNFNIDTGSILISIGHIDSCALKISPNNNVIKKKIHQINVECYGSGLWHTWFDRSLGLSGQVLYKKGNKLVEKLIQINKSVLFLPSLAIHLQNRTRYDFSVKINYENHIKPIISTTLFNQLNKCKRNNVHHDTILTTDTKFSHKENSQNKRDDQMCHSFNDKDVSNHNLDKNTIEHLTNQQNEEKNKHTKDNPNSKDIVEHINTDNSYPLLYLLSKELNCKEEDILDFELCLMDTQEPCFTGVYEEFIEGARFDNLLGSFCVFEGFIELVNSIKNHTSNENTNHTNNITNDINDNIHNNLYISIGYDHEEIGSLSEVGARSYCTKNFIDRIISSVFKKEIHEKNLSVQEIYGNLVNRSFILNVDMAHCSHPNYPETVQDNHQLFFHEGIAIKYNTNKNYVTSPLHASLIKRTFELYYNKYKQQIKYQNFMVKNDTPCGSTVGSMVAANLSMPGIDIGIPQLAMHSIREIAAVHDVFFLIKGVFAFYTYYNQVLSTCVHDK
Chain of Voltage-gated inwardly rectifying potassium channel KCNH2 (Q12809 whole entry): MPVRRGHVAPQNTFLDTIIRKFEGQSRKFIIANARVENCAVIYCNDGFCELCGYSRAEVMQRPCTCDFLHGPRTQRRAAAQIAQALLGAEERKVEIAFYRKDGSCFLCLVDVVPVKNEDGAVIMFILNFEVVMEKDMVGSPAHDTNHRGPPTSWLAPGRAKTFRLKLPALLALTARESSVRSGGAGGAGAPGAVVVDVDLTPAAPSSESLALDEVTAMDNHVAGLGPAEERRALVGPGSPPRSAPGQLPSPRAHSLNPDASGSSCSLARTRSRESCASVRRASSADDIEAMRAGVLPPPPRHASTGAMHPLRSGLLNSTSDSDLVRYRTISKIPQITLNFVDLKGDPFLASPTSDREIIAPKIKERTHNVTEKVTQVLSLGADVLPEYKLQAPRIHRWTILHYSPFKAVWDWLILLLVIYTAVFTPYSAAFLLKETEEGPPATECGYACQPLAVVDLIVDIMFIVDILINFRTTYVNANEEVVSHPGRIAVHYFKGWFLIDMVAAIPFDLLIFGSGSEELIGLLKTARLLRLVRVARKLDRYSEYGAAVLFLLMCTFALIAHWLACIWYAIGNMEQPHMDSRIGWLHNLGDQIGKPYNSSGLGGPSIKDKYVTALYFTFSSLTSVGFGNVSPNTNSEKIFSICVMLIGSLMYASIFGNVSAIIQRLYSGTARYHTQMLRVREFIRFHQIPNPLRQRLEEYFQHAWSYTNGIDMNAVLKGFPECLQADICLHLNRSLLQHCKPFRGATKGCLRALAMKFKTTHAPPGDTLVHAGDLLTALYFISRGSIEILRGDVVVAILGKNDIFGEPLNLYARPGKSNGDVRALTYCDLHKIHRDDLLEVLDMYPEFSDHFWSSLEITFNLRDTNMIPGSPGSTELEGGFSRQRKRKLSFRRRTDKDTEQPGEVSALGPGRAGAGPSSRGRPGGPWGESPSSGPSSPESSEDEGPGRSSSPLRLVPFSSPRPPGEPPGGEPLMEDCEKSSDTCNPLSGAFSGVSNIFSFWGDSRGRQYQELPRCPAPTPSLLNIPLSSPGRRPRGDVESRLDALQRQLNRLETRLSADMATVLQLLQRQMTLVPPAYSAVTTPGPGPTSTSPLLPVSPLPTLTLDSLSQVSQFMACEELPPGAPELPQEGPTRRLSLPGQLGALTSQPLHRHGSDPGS
Chain of Nucleotide-binding oligomerization domain-containing protein 2 (Q9HC29 whole entry, the tested form may be a part): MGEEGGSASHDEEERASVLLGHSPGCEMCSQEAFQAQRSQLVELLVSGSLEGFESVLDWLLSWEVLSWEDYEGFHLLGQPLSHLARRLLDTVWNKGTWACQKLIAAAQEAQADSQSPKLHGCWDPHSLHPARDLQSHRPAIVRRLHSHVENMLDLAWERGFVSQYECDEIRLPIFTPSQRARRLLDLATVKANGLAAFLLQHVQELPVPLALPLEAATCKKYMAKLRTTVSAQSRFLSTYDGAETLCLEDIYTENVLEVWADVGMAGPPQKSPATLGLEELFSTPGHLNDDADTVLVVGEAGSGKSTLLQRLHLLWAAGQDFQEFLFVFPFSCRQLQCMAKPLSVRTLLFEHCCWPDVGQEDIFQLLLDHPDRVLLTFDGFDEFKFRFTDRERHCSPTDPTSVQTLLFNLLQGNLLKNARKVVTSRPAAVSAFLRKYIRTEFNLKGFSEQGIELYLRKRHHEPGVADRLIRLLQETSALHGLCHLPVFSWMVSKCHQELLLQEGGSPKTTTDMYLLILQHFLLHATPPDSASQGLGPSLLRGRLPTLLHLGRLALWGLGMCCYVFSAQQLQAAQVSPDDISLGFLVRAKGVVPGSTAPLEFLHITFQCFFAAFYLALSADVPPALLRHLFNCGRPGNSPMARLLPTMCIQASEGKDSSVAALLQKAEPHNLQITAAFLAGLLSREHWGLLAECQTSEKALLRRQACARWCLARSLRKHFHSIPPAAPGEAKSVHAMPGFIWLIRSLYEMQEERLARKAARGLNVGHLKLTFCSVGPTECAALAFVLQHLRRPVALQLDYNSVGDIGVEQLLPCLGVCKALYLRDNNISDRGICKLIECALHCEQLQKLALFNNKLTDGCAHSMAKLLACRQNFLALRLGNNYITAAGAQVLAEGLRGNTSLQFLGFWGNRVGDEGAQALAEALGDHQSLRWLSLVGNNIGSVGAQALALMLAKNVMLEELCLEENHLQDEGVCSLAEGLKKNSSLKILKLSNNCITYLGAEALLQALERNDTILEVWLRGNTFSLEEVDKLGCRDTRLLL
Chain of Nonstructural protein 1 (Q194T2 whole entry): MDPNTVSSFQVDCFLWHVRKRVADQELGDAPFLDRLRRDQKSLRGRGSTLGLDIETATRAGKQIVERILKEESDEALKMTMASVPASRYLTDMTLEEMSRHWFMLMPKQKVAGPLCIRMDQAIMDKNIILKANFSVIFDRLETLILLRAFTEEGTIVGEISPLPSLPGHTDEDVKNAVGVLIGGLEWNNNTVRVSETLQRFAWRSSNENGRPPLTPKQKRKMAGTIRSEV

## CC(=O)NC(c1cccc([N+](=O)[O-])c1)c1ccc2cccnc2c1O (stereo not given)
[1]
  EC50: > 20 µM (inactive)
[2]
  EC50: 1.7 µM (inconclusive)
[3]
  IC50: 19.8 µM (active)
[4]
  EC50: 4.94 µM (active)
[5]
  EC50: 10.7 µM (active)
[6]
  IC50: > 20 µM (inactive)
[7]
  EC50: > 20 µM (inactive)
[8]
  IC50: > 20 µM (inactive)
[9]
  IC50: > 20 µM (inactive)
[10]
  IC50: 1.35 µM (active)
[11]
  EC50: > 350 µM (not active)
[12]
  EC50: 7.23 µM (inconclusive)
[13]
  EC50: 1.96 µM (inconclusive)
[14]
  IC50: 9.19 µM (active)
[15]
  AC50: 4.67 µM (active)
[16]
  AC50: 0.521 µM (active)
[17]
  AC50: 0.889 µM (active)
[18]
  AC50: 0.887 µM (active)
[19]
  AC50: > 70 µM (inactive)

## CC(C)C[C@@H](CC(=O)N[C@@H](CCC(=O)O)CC(=O)O)NC(=O)[C@@H]1CNCC[C@H]1NC(=O)C[C@H](CCCN)NC(=O)C[C@H](CO)NC(=O)[C@@H]1CNCC[C@H]1N
[20]
  AC50: 31.6 µM (inconclusive)
[21]
  AC50: 25.1 µM (inconclusive)

## CCOC(=O)N1CCN(C(=O)c2ccc(CN(c3ccc(C)c(C)c3)S(C)(=O)=O)cc2)CC1
[22]
  EC50: 9.85 µM (active)

## COc1ccc(OC)c(/C=C2\SC(=S)N(C(C(=O)O)c3ccccc3)C2=O)c1 (stereo not given)
[23]
  IC50: > 73.5 µM (not active)
[24]
  IC50: 12.1 µM (active)
[25]
  IC50: > 59.6 µM (not active)

## Cc1cc(-c2nnc(S)o2)c(C)n1-c1ccccc1
[26]
  EC50: 2.02 µM (active)
[27]
  EC50: < 0.1 µM (active)
[28]
  EC50: 75.3 µM (active)
[29]
  EC50: > 12 µM (not active)
[30]
  EC50: 1.19 µM (active)
